In patent publication US20120029190A1, “COMPOUNDS FOR TREATING DISORDERS MEDIATED BY METABOTROPIC GLUTAMATE RECEPTOR 5, AND METHODS OF USE THEREOF” (priority 2009, published 2012):

Biological target: T1, human recombinant mGluR5 receptor (Homo sapiens, UniProt P41594)
T1 construct: expressed in transfected cells; expression induced with doxycycline
Experiment: mGluR5 in vitro functional assay (aequorin cell line, inhibition of glutamate EC80 response)
Type: cell-based
Conditions: Table 1; aequorin cell line expressing human mGluR5, reference agonist glutamate at EC80; obtained in duplicate; read-out: IC50
Description: B. mGluR5 In Vitro Functional Assay
The functional assay utilized an aequorin cell line expressing human recombinant mGluR5 receptor, an inducible cell line that expresses the human receptor under the control of a promoter induced by doxycycline.
mGluR5 cells in mid-log phase, grown 18 hours prior to the test in antibiotic-free media supplemented with doxycycline (600 ng/mL), were detached by gentle flushing with PBS-EDTA ([…]). The cells were recovered by centrifugation and resuspended in assay buffer (HBSS, […], 3 ug/mL glutamate-pyruvate transaminase, […] MEM sodium pyruvate, 0.1% BSA protease-free). Cells were incubated at room temperature for at least 4 hours with Coelenterazine h (Molecular Probes). The cell suspension (60 uL) containing the test compound was mixed with a solution of reference agonist (30 uL) at its EC80, following an incubation of 3 min. after the first injection. The resulting emission of light was recorded using a Hamamatsu Functional Drug Screening System 6000 (FDSS 6000). To standardize the emission of recorded light (determination of the “100% signal’) across plates and across different experiments, some of the wells contained 100 uM digitonin or a saturating concentration (20 mM) of ATP. Plates also contained the reference agonist (glutamate) at a concentration equivalent to the EC80 obtained during assay validation. Percentages of inhibition were calculated on the basis of the activation induced by the reference agonist at a concentration equal to the EC80. Dose-response data were analyzed with XLFit (IDBS) software using nonlinear regression applied to a sigmoidal dose-response model.

T1 sequence (P41594 21-1212): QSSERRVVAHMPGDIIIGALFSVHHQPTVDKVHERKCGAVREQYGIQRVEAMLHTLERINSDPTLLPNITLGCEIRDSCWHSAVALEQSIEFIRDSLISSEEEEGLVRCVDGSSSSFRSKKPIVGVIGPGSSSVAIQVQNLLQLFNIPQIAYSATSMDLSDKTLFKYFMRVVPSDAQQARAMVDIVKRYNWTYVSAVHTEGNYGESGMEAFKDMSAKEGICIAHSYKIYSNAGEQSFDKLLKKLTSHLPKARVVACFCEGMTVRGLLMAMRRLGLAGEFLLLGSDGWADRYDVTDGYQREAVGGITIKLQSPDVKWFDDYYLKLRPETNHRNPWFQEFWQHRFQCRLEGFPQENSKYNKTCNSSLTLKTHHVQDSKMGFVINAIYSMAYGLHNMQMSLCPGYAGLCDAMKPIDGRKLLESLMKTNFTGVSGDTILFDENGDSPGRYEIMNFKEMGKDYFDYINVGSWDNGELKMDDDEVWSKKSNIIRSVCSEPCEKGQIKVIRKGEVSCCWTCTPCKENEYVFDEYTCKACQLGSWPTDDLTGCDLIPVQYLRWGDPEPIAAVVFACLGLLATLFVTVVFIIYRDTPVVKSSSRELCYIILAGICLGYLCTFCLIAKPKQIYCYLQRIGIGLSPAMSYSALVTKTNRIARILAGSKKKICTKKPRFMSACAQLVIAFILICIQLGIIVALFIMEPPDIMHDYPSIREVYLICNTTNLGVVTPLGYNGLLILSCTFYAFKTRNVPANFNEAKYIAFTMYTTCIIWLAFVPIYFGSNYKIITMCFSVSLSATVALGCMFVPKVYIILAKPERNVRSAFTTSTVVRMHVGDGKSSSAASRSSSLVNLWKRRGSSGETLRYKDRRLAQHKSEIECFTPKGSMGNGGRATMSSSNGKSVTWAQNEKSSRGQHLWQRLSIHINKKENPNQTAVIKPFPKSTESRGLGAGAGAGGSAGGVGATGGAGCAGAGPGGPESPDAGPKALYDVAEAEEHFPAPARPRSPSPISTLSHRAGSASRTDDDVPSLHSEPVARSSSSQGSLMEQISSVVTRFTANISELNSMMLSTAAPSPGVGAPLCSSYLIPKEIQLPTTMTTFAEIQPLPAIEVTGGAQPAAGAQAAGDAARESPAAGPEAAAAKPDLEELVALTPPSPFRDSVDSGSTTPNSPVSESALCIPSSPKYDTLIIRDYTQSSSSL

SMILES | IC50 [nM]
N#Cc1cccc(N2CCc3nc(-c4ccncc4)oc3C2)c1 [Compound 75, 3-(2-(Pyridin-4-yl)-6,7-dihydrooxazolo[5,4-c]pyridin-5(4H)-yl)benzonitrile] | < 10000
Cc1ccnc(-c2nc3c(o2)CN(c2cccc(C#N)c2)CC3)c1 [Compound 76, 3-(2-(4-Methylpyridin-2-yl)-6,7-dihydrooxazolo[5,4-c]pyridin-5(4H)-yl)benzonitrile] | < 10000
N#Cc1cccc(N2CCc3nc(-c4cccnc4)oc3C2)c1 [Compound 77, 3-(2-(Pyridin-3-yl)-6,7-dihydrooxazolo[5,4-c]pyridin-5(4H)-yl)benzonitrile] | > 10000
N#Cc1cccc(N2CCc3oc(-c4ccncc4)nc3C2)c1 [Compound 78, 3-(2-(Pyridin-4-yl)-6,7-dihydrooxazolo[4,5-c]pyridin-5(4H)-yl)benzonitrile] | > 10000
Cc1cc(-c2nc3c(o2)CCN(c2ccccn2)C3)on1 [Compound 79, 2-(3-Methylisoxazol-5-yl)-5-(pyridin-2-yl)-4,5,6,7-tetrahydrooxazolo[4,5-c]pyridine] | > 10000
N#Cc1cc(F)cc(N2CCc3oc(-c4ncco4)nc3C2)c1 [Compound 80, 3-Fluoro-5-(2-(oxazol-2-yl)-6,7-dihydrooxazolo[4,5-c]pyridin-5(4H)-yl)benzonitrile] | < 10000
CC1Cc2nc(-c3ccccn3)oc2CN1c1cc(F)cc(C#N)c1 (stereo not drawn) [Compound 83, 3-Fluoro-5-(6-methyl-2-(pyridin-2-yl)-6,7-dihydrooxazolo[5,4-c]pyridin-5(4H)-yl)benzonitrile] | < 1000
N#Cc1cccc(N2Cc3nc(-c4ccccn4)oc3C2)c1 [Compound 84, 3-(2-(Pyridin-2-yl)-4H-pyrrolo[3,4-d]oxazol-5(6H)-yl)benzonitrile] | < 1000
N#Cc1cccnc1N1Cc2nc(-c3ccccn3)oc2C1 [Compound 85, 2-(2-(Pyridin-2-yl)-4H-pyrrolo[3,4-d]oxazol-5(6H)-yl)pyridine-3-carbonitrile] | < 1000
N#Cc1cccc(-c2nc3c(o2)CN(c2ccccn2)C3)c1 [Compound 86, 3-(5-(Pyridin-2-yl)-5,6-dihydro-4H-pyrrolo[3,4-d]oxazol-2-yl)benzonitrile] | > 10000
N#Cc1cccc(-c2nc3c(o2)CN(c2ncccc2C#N)C3)c1 [Compound 87, 2-(2-(3-Cyanophenyl)-4H-pyrrolo[3,4-d]oxazol-5(6H)-yl)nicotinonitrile] | < 1000
N#Cc1cccc(N2CCc3nc(-c4ccccn4)oc3CC2)c1 [Compound 88, 3-(2-(Pyridin-2-yl)-7,8-dihydro-4H-oxazolo[5,4-d]azepin-6(5H)-yl)benzonitrile] | < 1000
N#Cc1cc(F)cc(N2CCc3nc(-c4ccccn4)oc3CC2)c1 [Compound 89, 3-Fluoro-5-(2-(pyridin-2-yl)-7,8-dihydro-4H-oxazolo[5,4-d]azepin-6(5H)-yl)benzonitrile] | < 1000
N#Cc1cc(F)cc(N2CCCc3nc(-c4ccccn4)oc3C2)c1 [Compound 90, 3-Fluoro-5-(2-(pyridin-2-yl)-7,8-dihydro-4H-oxazolo[5,4-c]azepin-5(6H)-yl)benzonitrile] | < 1000
COc1cc(C#N)cc(N2CCCc3nc(-c4ccccn4)oc3C2)c1 [Compound 91, 3-Methoxy-5-(2-(pyridin-2-yl)-7,8-dihydro-4H-oxazolo[5,4-c]azepin-5(6H)-yl)benzonitrile] | < 1000
N#Cc1cccc(N2CCCc3nc(-c4ncccn4)oc3C2)c1 [Compound 92, 3-(2-(Pyrimidin-2-yl)-7,8-dihydro-4H-oxazolo[5,4-c]azepin-5(6H)-yl)benzonitrile] | < 1000
N#Cc1cccc(N2CCCc3nc(-c4ccccn4)oc3C2)c1 [Compound 93, 3-(2-(Pyridin-2-yl)-7,8-dihydro-4H-oxazolo[5,4-c]azepin-5(6H)-yl)benzonitrile] | < 1000
N#Cc1cc(N2CCCc3nc(-c4ccccn4)oc3C2)cc(C(F)(F)F)c1 [Compound 94, 3-(2-(Pyridin-2-yl)-7,8-dihydro-4H-oxazolo[5,4-c]azepin-5(6H)-yl)-5-(trifluoromethyl)benzonitrile] | < 1000
FC(F)(F)c1cccc(N2CCCc3nc(-c4ccccn4)oc3C2)c1 [Compound 95, 2-(Pyridin-2-yl)-5-(3-(trifluoromethyl)phenyl)-5,6,7,8-tetrahydro-4H-oxazolo[5,4-c]azepine] | < 10000

SMILES | IC50 [nM]
N#Cc1cc(F)cc(N2CCCc3nc(-c4ccc(F)cn4)oc3C2)c1 [Compound 96, 3-Fluoro-5-(2-(5-fluoropyridin-2-yl)-7,8-dihydro-4H-oxazolo[5,4-c]azepin-5(6H)-yl)benzonitrile] | < 1000
N#Cc1cccc(N2CCCc3nc(-c4ccc(F)cn4)oc3C2)c1 [Compound 97, 3-(2-(5-Fluoropyridin-2-yl)-7,8-dihydro-4H-oxazolo[5,4-c]azepin-5(6H)-yl)benzonitrile] | < 1000
N#Cc1cc(F)cc(N2CCCc3oc(-c4ccccn4)nc3C2)c1 [Compound 98, 3-Fluoro-5-(2-(pyridin-2-yl)-7,8-dihydro-4H-oxazolo[4,5-c]azepin-5(6H)-yl)benzonitrile] | < 1000
N#Cc1cccc(N2CCCc3oc(-c4ccccn4)nc3C2)c1 [Compound 99, 3-(2-(Pyridin-2-yl)-7,8-dihydro-4H-oxazolo[4,5-c]azepin-5(6H)-yl)benzonitrile] | < 1000
Fc1cccc(N2CCCc3oc(-c4ccccn4)nc3C2)c1 [Compound 100, 5-(3-Fluorophenyl)-2-(pyridin-2-yl)-5,6,7,8-tetrahydro-4H-oxazolo[4,5-c]azepine] | < 1000
Fc1cc(F)cc(N2CCCc3oc(-c4ccccn4)nc3C2)c1 [Compound 101, 5-(3,5-Difluorophenyl)-2-(pyridin-2-yl)-5,6,7,8-tetrahydro-4H-oxazolo[4,5-c]azepine] | < 1000
Clc1cccc(N2CCCc3oc(-c4ccccn4)nc3C2)c1 [Compound 102, 5-(3-Chlorophenyl)-2-(pyridin-2-yl)-5,6,7,8-tetrahydro-4H-oxazolo[4,5-c]azepine] | < 1000
COc1cccc(N2CCCc3oc(-c4ccccn4)nc3C2)n1 [Compound 103, 5-(6-Methoxypyridin-2-yl)-2-(pyridin-2-yl)-5,6,7,8-tetrahydro-4H-oxazolo[4,5-c]azepine] | < 1000
Fc1cncc(N2CCCc3oc(-c4ccccn4)nc3C2)c1 [Compound 104, 5-(5-Fluoropyridin-3-yl)-2-(pyridin-2-yl)-5,6,7,8-tetrahydro-4H-oxazolo[4,5-c]azepine] | < 1000
N#Cc1cc(F)cc(N2CCc3nc(-c4ccccn4)sc3C2)c1 [Compound 105, 3-Fluoro-5-(2-(pyridin-2-yl)-6,7-dihydro-thiazolo[5,4-c]pyridin-5(4H)-yl)benzonitrile] | < 10000
Clc1cccc(-c2cn3c(n2)CN(c2cccnc2)CC3)c1 [Compound 106, 2-(3-Chlorophenyl)-7-(pyridin-3-yl)-5,6,7,8-tetrahydroimidazo[1,2-a]pyrazine] | < 10000
Clc1cccc(-c2cn3c(n2)CN(c2ccccn2)CC3)c1 [Compound 107, 2-(3-Chlorophenyl)-7-(pyridin-2-yl)-5,6,7,8-tetrahydroimidazol[1,2-a]pyrazine] | < 10000
N#Cc1cccnc1N1CCn2cc(-c3cccc(Cl)c3)nc2C1 [Compound 108, 2-(2-(3-Chlorophenyl)-5,6-dihydroimidazo[1,2-a]pyrazin-7(8H)-yl)nicotinotrile] | < 10000
N#Cc1cc(F)cc(N2CCn3cc(-c4ccccn4)nc3C2)c1 [Compound 109, 3-Fluoro-5-(2(pyridin-2-yl)-5,6-dihydroimidazo-[1,2-a]pyrazin-7(8H)-yl)benzonitrile] | < 1000
N#Cc1cccc(N2CCn3cc(-c4ccccn4)nc3C2)c1 [Compound 110, 3-(2(Pyridin-2-yl)-5,6-dihydroimidazo[1,2-a]pyrazin-7(8H)-yl)benzonitrile] | < 1000
N#Cc1cc(F)cc(N2CCc3nc(-c4ccccn4)[nH]c3C2)c1 [Compound 111, 3-Fluoro-5-(2-(pyridin-2-yl)-6,7-dihydro-3H-imidazo[4,5-c]pyridin-5(4H)-yl)benzonitrile] | > 10000
N#Cc1cc(F)cc(N2CCn3nc(-c4ccccn4)nc3C2)c1 [Compound 112, 3-Fluoro-5-(2-(pyridin-2-yl)-5,6-dihydro-[1,2,4]triazolo[1,5-a]pyrazin-7(8H)-yl)benzonitrile] | < 1000
Clc1cccc(N2CCn3nc(-c4ccccn4)nc3C2)c1 [Compound 113, 7-(3-Chlorophenyl)-2-(pyridin-2-yl)-5,6,7,8-tetrahydro-[1,2,4]triazolo[1,5-a]pyrazine] | < 1000
Fc1cccc(N2CCn3nc(-c4ccccn4)nc3C2)c1 [Compound 114, 7-(3-Fluorophenyl)-2-(pyridin-2-yl)-5,6,7,8-tetrahydro-[1,2,4]triazolo[1,5-a]pyrazine] | < 1000

Same assay, conditions: Table 2; aequorin cell line expressing human mGluR5, reference agonist glutamate at EC80; obtained in duplicate; read-out: IC50

SMILES | IC50 [nM]
Clc1cccc(N2CCc3oc(-c4ccccn4)nc3C2)c1 [Compound 115, 5-(3-chlorophenyl)-2-(pyridin-2-yl)-4,5,6,7-tetrahydrooxazolo[4,5-c]pyridine] | < 1000
